Experimental data from patent publication EP0689844A1, “Complexes of vinpocetine formed with cyclodextrins, process for their preparation and pharmaceutical compositions containing them” (TECNIMEDE-SOCIEDADE TECNICO-MEDICINAL, S.A., priority 1994, dated 1996).
Values after ≈ are worked out from the molar mass of the structure shown. Read-outs that look alike come from different tables or passages of the source.

Experiments:
[1] = solubility of vinpocetine in cyclodextrin solutions of different concentrations (phase solubility, HPLC); type: physicochemical; settings: aqueous cyclodextrin solution, 37 °C, aqueous with cosolvent or surfactant or cyclodextrin, thermodynamic from solid
Experimental: 10 mg of vinpocetine, cyclodextrin in different amounts and 10 ml of distilled water were charged into 20 ml test tubes. After closing, the tubes were agitated for 24 hours at 37°C, thereafter the samples were filtrated and the filtrates were analysed by HPLC (High Performance Liquid Chromatography) in 0.1N HCl solution.

[2] = p.o.; cited from earlier work
[3] = cited from earlier work

solubility at 24 h ([1]; HP-β-cyd 25.0 mM in distilled water): 5.5 µg/mL (≈ 15.7 µM)
solubility at 24 h ([1]; HP-β-cyd 50.0 mM in distilled water): 12.8 µg/mL (≈ 36.5 µM)
solubility at 24 h ([1]; HP-β-cyd 100.0 mM in distilled water): 23.2 µg/mL (≈ 66.2 µM)
solubility at 24 h ([1]; γ-cyd 12.5 mM in distilled water): 6.1 µg/mL (≈ 17.4 µM)
solubility at 24 h ([1]; γ-cyd 25.0 mM in distilled water): 12 µg/mL (≈ 34.2 µM)
solubility at 24 h ([1]; γ-cyd 50.0 mM in distilled water): 24.4 µg/mL (≈ 69.6 µM)
Structure (SMILES): CCOC(=O)C1=C[C@]2(CC)CCCN3CCc4c(n1c1ccccc41)[C@@H]32 [vinpocetine, eburnamenine-14-carboxylic acid ethyl ester]
absolute bioavailability [2]: 6.7%
solubility ([3]; in ethanol and 0.1N HCl): dissolves well
solubility ([3]; in water, ethyl ether and hexane): poorly soluble
